Data as given in patent USRE47475E1, “Selective agents for pain suppression” (WiSys Technology Foundation, Inc., priority 2002, dated 2019).

Experiments:
[1] = tested on: locomotor activity of mice; test: spontaneous locomotor activity (activity cage); format: in vivo
Procedure: Locomotor activity: Spontaneous locomotor activity was tested using a commercially available microprocessor equipped activity cage (actiframe, Gerb Elektronik). Mice were placed in the activity cage 15 min before testing. Locomotor activity was measured for 1 h after intraperitoneal administration of vehicle, gabapentin or HZ166 during the early light phase of the day-night cycle.

[2] = tested on: inflammatory hyperalgesia induced by zymosan A; test: zymosan A model of inflammatory pain, mechanical sensitization; format: in vivo, mice; conditions: 16 mg/kg i.p., 48 hours after zymosan A; n=6
Procedure: Inflammatory pain is assessed in the zymosan A model. See Hargreaves, K., Dubner, R., Brown, F., Flores, C. & Joris, J. A new and sensitive method for measuring thermal nociception in cutaneous hyperalgesia. Pain 32, 77-88 (1988). Inflammatory pain is induced by subcutaneous injection of zymosan A (0.06 mg in mice; 1 mg in rats) into one hindpaw. In mice, 0.06 mg of zymosan A suspended in […] of 0.9% NaCl is injected subcutaneously into the plantar side of the left hindpaw. The model is also used in rats, but 1 mg of zymosan A is used. Heat hyperalgesia is assessed 24 h and 6 h after induction of inflammation in mice and rats, respectively.
Pain Studies—Inflammatory pain: Inflammatory pain was studied in the zymosan A model (Meller and Gebhart, 1997). 0.06 mg zymosan A (Sigma Chemicals) suspended in 20 μl 0.9% NaCl was injected subcutaneously into the plantar side of the left hindpaw. Mechanical sensitization was assessed 48 hours after induction of inflammation.
Pain Studies—Mechanical sensitization: Mechanical sensitivity was assessed with dynamic von Frey filaments (IITC, Woodland Hills, Calif.). […]
Statistical Analysis: For all different doses and vehicle, baseline paw withdrawal thresholds/latencies on day 7 after nerve ligation or on day 2 after zymosan A injection were subtracted from all later withdrawal thresholds and the area under the curve (AUC) was calculated. […]

Cyp = Cyp profile
[3] = tested on: Formalin Pain (mouse, i.p.); test: T22 formalin test (chemically induced pain); format: in vivo
Procedure: This elicits a distinct bi-phasic behavioral profile in response to the formalin injection characterized by licking of the affected paw, and the number of licks is measured as a proxy for perceived pain. The first (acute) phase is thought to correspond to the direct stimulation of peripheral fibers while the second (inflammatory) phase is caused by the release of inflammatory mediators from the damaged tissue and nerve endings. Thus, this model is ideally suited for efficacy of an investigational AED against the acute and chronic hyper-responsive neuronal discharges following activation of peripheral nerve fibers.
The results of the formalin test are given both as raw data (“Response”) and in an aggregate, analyzed form (“Analysis”). In the Response section, each Trial involves sixteen animals, eight controls given an i.p. injection of vehicle and eight given the compound at a specified dose. Thus, for multiple doses of the compound, there will also be multiple control groups. The data recorded for each animal is the amount of time(s) spent licking the affected hind paw in a two minute period. These two minute periods occur at five minute intervals and continue for 45 minutes. […] From this plot, we can then determine the area under the curve (AUC) for each animal during both the acute and inflammatory stages. The AUC for each phase is shown in the analysis section of the data sheet for both control and drug-treated animals The AUC for each drug-treated animal is compared to the average result from the control group, yielding an average percent of control (reported with the SEM and p value).

[4] = tested on: Sciatic Ligation neuropathic pain; test: T23 partial ligation of the sciatic nerve (mechanical allodynia); format: in vivo, rats; conditions: dose 35.5 (HZ-166), 18 (JY-XHE-053), 1 (XLI-JY-DMH) mg/kg; TPE 2 hr
Procedure: Neuropathic pain. The pro- or antinociceptive effects of the compounds of the present invention are analyzed in two manners. […] Sterile technique will be used throughout the surgery. The upper thigh will be shaved and wiped off with ethanol and betadine. A small incision will then be made in the skin. The underlying muscle of the upper thigh will be separated and the sciatic nerve exposed. The nerve is separated from the surrounding connective tissue and slightly elevated by a pair of fine, curved forceps. Approximately ⅓ to ½ of the nerve is tied off by passing a needle (7.0) and nylon suture through the nerve. The muscle and skin incision are closed off separately with 5.0 suture and the animals kept warm until they have recovered from the anesthesia. This procedure is routinely done on the right side (ipsilateral) while a sham surgery is performed on the left hind leg (contralateral). The latter involves a similar procedure with the exception that the sciatic nerve on this side is only exposed. The rats will be closely monitored daily for the development of infection or untoward effects of the surgery in which case the animals will be immediately euthanized
After an appropriate time for recovery (7 days) the animals will be tested for the development of mechanical allodynia (abnormal response to a non-noxious stimulus). The animals are each put in a bottomless plexiglass box placed on a wire mesh (¼″) platform. After 30-60 minutes in which to acclimate, a baseline mechanical sensitivity is determined. This procedure is done by applying a series of calibrated Von Frey fibres perpendicularly to the plantar surface of each hind paw and holding it there for about 6 secs with enough force to slightly bend the fibre. After a positive response (withdrawal of the foot) is noted a weaker fibre is applied. This is repeated until a 50% threshold for withdrawal can be determined
The allodynic threshold is then redetermined after intraperitoneal administration of an investigational AED. Testing will be conducted at the time-to-peak effect of the AED as determined in the acute seizure model.

## C#Cc1ccc2c(c1)C(c1ccccn1)=NCc1c(C(=O)OCC)ncn1-2 [HZ-166, 8-Acetylenyl-6-pyridin-2-yl-4H-benzo[f]imidazo[1,5-a][1,4]diazepine-3-carboxylic acid ethyl ester]
[1]; 16 and 48 mg/kg i.p.
  impairment of spontaneous motor activity: did not significantly impair
[1]; i.p.
  doses that did not impair spontaneous locomotor activity: ≤ 48 mg/kg
[1]; mouse model of neuropathic pain study
  sedation: not sedating
[2]
  AUC of mechanical PWT: 1.55 ± 0.21 g·h
Cyp
  Cyp profile: good
[3]; formalin test, acute phase
  protection at the acute phase of chemically induced pain: significant protection
[3]; mouse, i.p., acute phase, dose 16 (HZ-166), 10 (JY-XHE-053), 1 (XLI-JY-DMH) mg/kg
  Change (% of Control) ± SEM, T22 Formalin Pain, Acute: 66.8 % of Control
[3]; mouse, i.p., inflammatory phase, dose 16 (HZ-166), 10 (JY-XHE-053), 1 (XLI-JY-DMH) mg/kg
  Change (% of Control) ± SEM, T22 Formalin Pain, inflammatory: 63 % of Control
[4]
  Change (% of Control) ± SEM, T23 Sciatic Ligation: 210 % of Control
  Significance, T23 Sciatic Ligation: yes
